In patent publication US20130209543A1, “ENHANCED TREATMENT REGIMENS USING MTOR INHIBITORS” (Intellikine LLC, priority 2011, published 2013):

Experiment: Phase I clinical trial: safety, related treatment-emergent adverse events, patients n (%)
Assay type: in vivo
Experimental: Safety, maximum tolerated dose (MTD), pharmacokinetics (PK) and preliminary antitumor activity were evaluated.
Pharmacodynamic (PD) endpoints were evaluated in surrogate (peripheral blood cells [PBCs], skin) and tumor tissues for the phosphorylation of TORC1-dependent markers (4EBP1/S6), and TORC2-dependent markers (AKT/PRAS40).

For `CC(C)n1nc(-c2ccc3oc(N)nc3c2)c2c(N)ncnc21` [compound A], the Asthenia (6 mg/3W, N = 3) was 0 (0%), the “Asthenia (second line)” value (6 mg/3W, N = 3) was 0 (0%) and the Catheter site inflammation (6 mg/3W, N = 3) was 0 (0%). For the same compound, the Catheter site pain (6 mg/3W, N = 3) was 0 (0%), the Decreased appetite (6 mg/3W, N = 3) was 0 (0%) and the Diarrhoea (6 mg/3W, N = 3) was 0 (0%). The Dry skin (6 mg/3W, N = 3) was 0 (0%), the Dysgeusia (6 mg/3W, N = 3) was 0 (0%) and the Dyspnoea (6 mg/3W, N = 3) was 0 (0%). For the same compound, the Fatigue (6 mg/3W, N = 3) was 0 (0%), the Headache (6 mg/3W, N = 3) was 0 (0%) and the Hypercholesterolaemia (6 mg/3W, N = 3) was 0 (0%). For the same compound, the Hypertransaminasaemia (6 mg/3W, N = 3) was 0 (0%), the Hypertriglyceridaemia (6 mg/3W, N = 3) was 0 (0%) and the Hypomagnesaemia (6 mg/3W, N = 3) was 0 (0%). For the same compound, the Hypotension (6 mg/3W, N = 3) was 0 (0%), the Low fever (6 mg/3W, N = 3) was 0 (0%) and the Lymphopenia (6 mg/3W, N = 3) was 0 (0%). For the same compound, the Palmar-plantar erythrodysaesthesia syndrome (6 mg/3W, N = 3) was 0 (0%), the “Patients Reporting at Least One Related TEAE” value (shortened to “Patients Reporting”) (6 mg/3W, N = 3) was 3 (100%) and the Pyrexia (6 mg/3W, N = 3) was 0 (0%). For the same compound, the Rash macular (6 mg/3W, N = 3) was 0 (0%), the Urinary tract infection (6 mg/3W, N = 3) was 0 (0%) and the Nausea (7 mg/5W, N = 3) was 0 (0%). The “Nausea (second line)” value (7 mg/5W, N = 3) was 1 (33%), the Urine tract infection (7 mg/5W, N = 3) was 0 (0%) and the Vomiting (7 mg/5W, N = 3) was 0 (0%). For the same compound, the “Patients Reporting” value (7 mg/week, N = 3) was 3 (100%), the Alanine aminotransferase increased (9 mg/3W, N = 5) was 0 (0%) and the Asthenia (9 mg/3W, N = 5) was 1 (20%). For the same compound, the “Asthenia (second line)” value (9 mg/3W, N = 5) was 0 (0%), the Catheter site inflammation (9 mg/3W, N = 5) was 0 (0%) and the Catheter site pain (9 mg/3W, N = 5) was 0 (0%). For the same compound, the Decreased appetite (9 mg/3W, N = 5) was 0 (0%), the Diarrhoea (9 mg/3W, N = 5) was 1 (20%) and the Dry skin (9 mg/3W, N = 5) was 1 (20%). The Dysgeusia (9 mg/3W, N = 5) was 0 (0%), the Dyspnoea (9 mg/3W, N = 5) was 1 (20%) and the Fatigue (9 mg/3W, N = 5) was 0 (0%). For the same compound, the Headache (9 mg/3W, N = 5) was 0 (0%), the Hyperbilirubinaemia (9 mg/3W, N = 5) was 0 (0%) and the Hypercholesterolaemia (9 mg/3W, N = 5) was 1 (20%). The Hyperglycaemia (9 mg/3W, N = 5) was 1 (20%), the Hypertransaminasaemia (9 mg/3W, N = 5) was 1 (20%) and the Hypertriglyceridaemia (9 mg/3W, N = 5) was 1 (20%). For the same compound, the Hypomagnesaemia (9 mg/3W, N = 5) was 1 (20%), the Hypotension (9 mg/3W, N = 5) was 1 (20%) and the Low fever (9 mg/3W, N = 5) was 0 (0%). The Lymphopenia (9 mg/3W, N = 5) was 1 (20%), the Mucosal inflammation (9 mg/3W, N = 5) was 2 (40%) and the Nausea (9 mg/3W, N = 5) was 2 (40%). For the same compound, the Palmar-plantar erythrodysaesthesia syndrome (9 mg/3W, N = 5) was 1 (20%), the “Patients Reporting” value (9 mg/3W, N = 5) was 4 (80%) and the Platelet count decreased (9 mg/3W, N = 5) was 0 (0%). For the same compound, the Pruritus (9 mg/3W, N = 5) was 2 (40%), the Pyrexia (9 mg/3W, N = 5) was 0 (0%) and the Rash (9 mg/3W, N = 5) was 3 (60%). For the same compound, the Rash macular (9 mg/3W, N = 5) was 0 (0%), the Urinary tract infection (9 mg/3W, N = 5) was 1 (20%) and the Vomiting (9 mg/3W, N = 5) was 2 (40%). The Diarrhoea (10 mg/5W, N = 3) was 0 (0%), the “Nausea (second line)” value (10 mg/5W, N = 3) was 0 (0%) and the Rash (10 mg/5W, N = 3) was 0 (0%). For the same compound, the Mucosal inflammation (10 mg/week, N = 3) was 0 (0%), the Alanine aminotransferase increased (12 mg/3W, N = 3) was 0 (0%) and the “Asthenia (second line)” value (12 mg/3W, N = 3) was 0 (0%). For the same compound, the Diarrhoea (12 mg/3W, N = 3) was 0 (0%), the Dry skin (12 mg/3W, N = 3) was 0 (0%) and the Dyspnoea (12 mg/3W, N = 3) was 0 (0%). The Fatigue (12 mg/3W, N = 3) was 0 (0%), the Headache (12 mg/3W, N = 3) was 0 (0%) and the Hyperbilirubinaemia (12 mg/3W, N = 3) was 0 (0%). The Hypercholesterolaemia (12 mg/3W, N = 3) was 0 (0%), the Hypertransaminasaemia (12 mg/3W, N = 3) was 0 (0%) and the Hypertriglyceridaemia (12 mg/3W, N = 3) was 0 (0%). For the same compound, the Hypomagnesaemia (12 mg/3W, N = 3) was 0 (0%), the Hypotension (12 mg/3W, N = 3) was 0 (0%) and the Low fever (12 mg/3W, N = 3) was 0 (0%). The Lymphopenia (12 mg/3W, N = 3) was 0 (0%), the Palmar-plantar erythrodysaesthesia syndrome (12 mg/3W, N = 3) was 0 (0%) and the Platelet count decreased (12 mg/3W, N = 3) was 0 (0%). The Pyrexia (12 mg/3W, N = 3) was 0 (0%), the Rash (12 mg/3W, N = 3) was 0 (0%) and the Urinary tract infection (12 mg/3W, N = 3) was 0 (0%). The Vomiting (12 mg/3W, N = 3) was 0 (0%), the “Patients Reporting” value (15 mg/week, N = 3) was 3 (100%) and the Alanine aminotransferase increased (16 mg/3W, N = 3) was 0 (0%). The “Asthenia (second line)” value (16 mg/3W, N = 3) was 1 (33%), the Catheter site inflammation (16 mg/3W, N = 3) was 0 (0%) and the Catheter site pain (16 mg/3W, N = 3) was 0 (0%). The Decreased appetite (16 mg/3W, N = 3) was 0 (0%), the Dry skin (16 mg/3W, N = 3) was 0 (0%) and the Dysgeusia (16 mg/3W, N = 3) was 0 (0%). The Dyspnoea (16 mg/3W, N = 3) was 0 (0%), the Hyperbilirubinaemia (16 mg/3W, N = 3) was 0 (0%) and the Hypercholesterolaemia (16 mg/3W, N = 3) was 0 (0%). For the same compound, the Hypertransaminasaemia (16 mg/3W, N = 3) was 0 (0%), the Hypertriglyceridaemia (16 mg/3W, N = 3) was 0 (0%) and the Hypomagnesaemia (16 mg/3W, N = 3) was 0 (0%). The Hypotension (16 mg/3W, N = 3) was 0 (0%), the Lymphopenia (16 mg/3W, N = 3) was 0 (0%) and the Nausea (16 mg/3W, N = 3) was 0 (0%). The Palmar-plantar erythrodysaesthesia syndrome (16 mg/3W, N = 3) was 0 (0%), the Platelet count decreased (16 mg/3W, N = 3) was 0 (0%) and the Pruritus (16 mg/3W, N = 3) was 0 (0%). For the same compound, the Rash (16 mg/3W, N = 3) was 0 (0%), the Rash macular (16 mg/3W, N = 3) was 0 (0%) and the Urinary tract infection (16 mg/3W, N = 3) was 0 (0%). For the same compound, the Vomiting (16 mg/3W, N = 3) was 0 (0%), the Dose limiting toxicity (20 mg Q3D) was “Mucositis” and the Nausea (30 mg/week, N = 3) was 3 (100%). The “Patients Reporting” value (30 mg/week, N = 3) was 3 (100%), the Dose limiting toxicity (40 mg QW) was “Asthenia” and the Dose limiting toxicities (40 mg QW, 20 mg QD×3d QW and 13 mg QD×5d QW cohorts) was “Grade (G) 3 asthenia and G3 mucositis”. The Catheter site inflammation (Total QD Dosing, N = 25) was 0 (0%), the Catheter site pain (Total QD Dosing, N = 25) was 0 (0%) and the Diarrhea (Total QD Dosing, N = 25) was 0 (0%). For the same compound, the Fatigue (Total QD Dosing, N = 25) was 0 (0%), the Headache (Total QD Dosing, N = 25) was 0 (0%) and the Hyperbilirubinaemia (Total QD Dosing, N = 25) was 0 (0%). The Hypertransaminasaemia (Total QD Dosing, N = 25) was 0 (0%), the Hypertriglyceridaemia (Total QD Dosing, N = 25) was 0 (0%) and the Hypomagnesaemia (Total QD Dosing, N = 25) was 0 (0%). The Hypotension (Total QD Dosing, N = 25) was 0 (0%), the Low fever (Total QD Dosing, N = 25) was 0 (0%) and the Malaise (Total QD Dosing, N = 25) was 0 (0%). For the same compound, the Nausea (Total QD Dosing, N = 25) was 0 (0%), the Oral discomfort (Total QD Dosing, N = 25) was 0 (0%) and the Palmar-plantar erythrodysaesthesia syndrome (Total QD Dosing, N = 25) was 0 (0%). For the same compound, the Platelet count decreased (Total QD Dosing, N = 25) was 0 (0%), the Pyrexia (Total QD Dosing, N = 25) was 0 (0%) and the Rash (Total QD Dosing, N = 25) was 0 (0%). The Rash macular (Total QD Dosing, N = 25) was 0 (0%), the Urinary tract infection (Total QD Dosing, N = 25) was 0 (0%) and the Urine tract infection (Total QD Dosing, N = 25) was 0 (0%). For the same compound, the Vomiting (Total QD Dosing, N = 25) was 0 (0%), the Weakness (Total QD Dosing, N = 25) was 0 (0%) and the “Asthenia (second line)” value (Total QDx3d QW, N = 14) was 1 (7%). The Coagulopathy (Total QDx3d QW, N = 14) was 0 (0%), the Confusional state (Total QDx3d QW, N = 14) was 0 (0%) and the Cough (Total QDx3d QW, N = 14) was 0 (0%). For the same compound, the Diarrhea (Total QDx3d QW, N = 14) was 0 (0%), the Dizziness (Total QDx3d QW, N = 14) was 0 (0%) and the Dyspnoea exertional (Total QDx3d QW, N = 14) was 0 (0%). The Eye infection (Total QDx3d QW, N = 14) was 0 (0%).
